Data from US10799530B1, “Composition and method for the prevention and treatment of obesity” (Vector Vitale IP LLC, priority 2019, dated 2020).
Values joined by “and” are separate entries in the source; they are usually repeats but may differ in a detail not shown here. Equal values may be shown once.

What was measured:
Type in all cases: in vivo
rats [1] = experiment: Glucose tolerance test; settings: fast overnight, one value per animal
Description: A glucose tolerance test was performed to determine a potential effect of zinc isotope on the dynamics of glucose concentration in the blood flow. Experimental procedure: laboratory animals are given intragastric injections of either normal saline solution or zinc in saline solution (5 mg/kg) in a volume of 2 ml. After that, 60 minutes after the aforementioned injections, the basal level of glucose is measured and a glucose solution is injected in an amount of 3 g/kg in a volume of 2 ml using the same route of administration. The blood glucose levels are measured again 60 minutes after injecting the glucose solution.

rats [2] = experiment: Serum insulin level after intraperitoneal administration; settings: intact rats; 3750 μg of zinc per 1 kg intraperitoneally every other day, 7 injections
Description: Animals are placed in cages, 4 per cage, with free access to food/water. […] Administration is performed every other day, in the amount of 7 injections per animal (intraperitoneal method of drug administration).
Samples in volume of 100 μl were incubated in microplate wells at 4° C. overnight. […] Non-specific binding sites were blocked with a 5% fat-free milk blocking solution and incubated for 1 hour at 37° C. After washing, the separate wells of the microplate were loaded with primary rabbit anti-insulin antibodies and incubated for 1 hour at 37° C. After incubation, the microplate wells were washed and loaded with appropriate secondary antibodies conjugated to horseradish peroxidase and incubated for another 1 hour at 37° C. […] The optical density was measured at 492 nm. The insulin concentrations were calculated using the calibration curve generated under the given conditions and human insulin of known concentration.)

rats [3] = experiment: Body weight, food and water consumption after intraperitoneal administration; settings: intact rats; 3750 μg of zinc per 1 kg intraperitoneally every other day, 7 injections
Description: The current dose was calculated by zinc.

rats [4] = experiment: Area of islets of Langerhans after intraperitoneal administration; settings: intact rats, day 7 after the last administration
Description: Animals are placed in cages, 4 per cage, with free access to food/water. […] Administration is performed every other day, in the amount of 7 injections per animal (intraperitoneal method of drug administration). The dose of the drug injected to each animal was calculated on the basis of the ratio: 3750 μg of zinc per 1 kg of animal body weight.

Row | Molecule | Glucose tolerance test, 60 min (1 h after glucose administration) (rats [1]; effector dose 5 mg/kg in 2 ml, glucose 3 g/kg body weight in 2 ml) | Glucose tolerance test, 0 min (1 h after effector administration) (rats [1]; effector dose 5 mg/kg in a volume of 2 ml) | Serum insulin levels at day 7 after the withdrawal (rats [2]) | Serum insulin levels on the first day after the drug withdrawal (rats [2]) | Body weight of rats (rats [3]) | Area of islets of Langerhans compared to the control group and the zinc acetate group (rats [4])
1 | CC(=O)[O-].CC(=O)[O-].[Zn+2] [Zn acetate, Zinc acetate, reference compound] | also dropped, though not so strongly and 7.2 and 6.9 and 7.3 and 6.8 | 4.6 and 5.2 (2×) and 4.9 and 5.1 | drop in the insulin levels to the value of those of intact/control animals | significant increase | – | –
2 | zinc asparaginate [^64Zne] | – | – | significant increase in the insulin levels | slightly higher than in the group of intact animals | significant increase in the body weight | significant increase in the islet area
